The record followed here is the supplement of paper PMC10949913.

What all share (conditions): 48 h
For assay [1], the system named is CU-ACC1. The experiment in a line: AC50 viability; higher = less potent. Put shortly: (§1)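 Three adrenocortical carcinoma cell lines were seeded at 500–1,000 cells/well in 5 µL medium in 1,536-well plates. 23 nL of each MIPE 5.0 library compound was added at 11 concentrations. After 48 h (per the protocol name), CellTiter-Glo was added for 15 minutes at room temperature and luminescence was read. Signals were normalised per plate to vehicle and empty-well controls. AC50 and area under the curve came from fitted concentration-response curves, keeping only inhibitory or non-responding curve classes.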

Assay [2] has as its system NCI-H295R. The experiment in a line: AC50 viability; higher = less potent. Put shortly:
as §1

In assay [3] the test system is CU-ACC1. The experiment in a line: area under concentration-response curve (viability) (AUC (a.u.)); higher = less active. Put shortly: as §1
A further assay relates to CU-ACC2. Described as above. The gist of the method: as §1
The test system of assay [4] is NCI-H295R. The description is as above. The gist of the method: as §1

Each structure is given as a SMILES string.

With `COc1cc(/C=C/C(=O)CC(=O)/C=C/c2ccc(O)c(OC)c2)ccc1O`, the AC50 viability came to 23.5 µM in the assay with CU-ACC1 [1] and 26.3 µM in the assay with NCI-H295R [2]. Besides, the “area under concentration-response curve” value stood at 548 with CU-ACC1 [3], 591 in the assay on CU-ACC2 and 545 with NCI-H295R [4].
Turning to `C[C@@H](C(=O)Nc1ccc(Cl)cc1)[C@H]1CC[C@@H](c2ccnc3ccc(F)cc32)CC1`, the figures for the AC50 viability with CU-ACC1 [1] and in the assay on NCI-H295R [2] were 29.5 µM and 16.6 µM, respectively. In addition, the results for the “area under concentration-response curve” value in the assay with CU-ACC1 [3], in the assay on CU-ACC2 and in the assay with NCI-H295R [4] were 488, 626 and 564, respectively.
On to `O=C([O-])C[C@H](O)C[C@H](O)/C=C/c1c(C2CC2)nc2ccccc2c1-c1ccc(F)cc1`, for which the AC50 viability is 4.68 µM in the assay with CU-ACC1 [1] and 10.5 µM with NCI-H295R [2]. In addition, the “area under concentration-response curve” value with CU-ACC1 [3] came out at 394; in the assay with CU-ACC2, 478; with NCI-H295R [4] it was 464.
Taken in the same sequence, the figures for `Cn1c(=O)n(-c2ccc(C(C)(C)C#N)cc2)c2c3cc(-c4cnc5ccccc5c4)ccc3ncc21` were 0.108 µM, 0.171 µM, 471, 623 and 510.
Take `COc1cc(OC)cc(N(CCNC(C)C)c2ccc3ncc(-c4cnn(C)c4)nc3c2)c1`: the AC50 viability in the assay with CU-ACC1 [1] turned out to be 23.5 µM; in the assay with NCI-H295R [2], 18.6 µM. The “area under concentration-response curve” value in the assay with CU-ACC1 [3] is 499; in the assay with CU-ACC2, 603; in the assay on NCI-H295R [4], 526.
For `COc1cc(C(=O)NC(=N)Nc2ccc(C)c(NC(=O)c3ccc(-c4ccccc4)cc3)c2)cc(OC)c1OC`, the figures for the AC50 viability in the assay on CU-ACC1 [1] and in the assay on NCI-H295R [2] were 10.5 µM and 13.2 µM, respectively. Moreover, the “area under concentration-response curve” value in the assay with CU-ACC1 [3] stood at 403; in the assay with CU-ACC2 it was 489; in the assay with NCI-H295R [4], 399.
On to `CCNC(=O)C[C@@H]1\N=C(C2=CC=C(Cl)C=C2)/C3=C(C=CC(=C3)OC)[N]4C(=NN=C14)C`, for which the AC50 viability in the assay with CU-ACC1 [1] turned out to be 13.2 µM; with NCI-H295R [2] it was 8.33 µM. The “area under concentration-response curve” value turned out to be 423 in the assay on CU-ACC1 [3], 500 in the assay with CU-ACC2 and 457 in the assay on NCI-H295R [4].
`C[C@H](NC(=O)c1sccc1OCc1ccc(Cl)cc1)c1ccccc1`: the AC50 viability with CU-ACC1 [1] is 10.5 µM; with NCI-H295R [2], 20.9 µM. For the same compound, the figures for the “area under concentration-response curve” value with CU-ACC1 [3], in the assay with CU-ACC2 and with NCI-H295R [4] were 456, 571 and 504, respectively.
The corresponding values for `O=[S+]([O-])(Nc1ccc(-c2cccnc2)c2cccnc12)c1cccc(C(F)(F)F)c1` are 4.68 µM, 4.17 µM, 456, 595 and 486.
Consider `CNC(=O)Nc1ccc(-c2nc(N3CC4CCC(C3)O4)c3cnn(C4CCC5(CC4)OCCO5)c3n2)cc1`, for which the values for the AC50 viability in the assay on CU-ACC1 [1] and in the assay with NCI-H295R [2] were 0.148 µM and 1.05 µM, respectively. The “area under concentration-response curve” value turned out to be 404 with CU-ACC1 [3], 520 in the assay on CU-ACC2 and 455 in the assay on NCI-H295R [4].
Taken in the same sequence, the figures for `NC(=O)c1ccccc1Nc1ccnc(Nc2cccc(O)c2)n1` were 20.9 µM, 2.63 µM, 465, 553 and 462.
`C[C@@H]1CN(Cc2ccc(F)cc2)CCN1C(=O)COc1ccc(Cl)cc1NC(N)=O`: the AC50 viability in the assay on CU-ACC1 [1] turned out to be 1.86 µM; in the assay on NCI-H295R [2] it was 0.166 µM. The “area under concentration-response curve” value with CU-ACC1 [3] came out at 412; in the assay on CU-ACC2 it was 522; in the assay on NCI-H295R [4], 465.
As to `Clc1ccc(C(c2ccccc2Cl)C(Cl)Cl)cc1` (configuration not stated), the results for the AC50 viability in the assay with CU-ACC1 [1] and in the assay on NCI-H295R [2] were 18.6 µM and 20.9 µM, respectively. Moreover, the “area under concentration-response curve” value stood at 426 in the assay on CU-ACC1 [3] and 432 in the assay on NCI-H295R [4].
The corresponding values for `CN1CCN(C2CCN(C(=O)Nc3cc(Oc4ccc(NC(=O)C5(C(=O)Nc6ccc(F)cc6)CC5)c(F)c4)ccn3)CC2)CC1` are 29.5 µM, 20.9 µM, 392 and 453.
For `CCNc1cc(NC2CCC(O)CC2)nc(Nc2ccc3c(ccn3Cc3ccccc3)c2)n1` (configuration not stated), the AC50 viability was 0.0235 µM in the assay with CU-ACC1 [1] and 1.18 µM in the assay with NCI-H295R [2]. For the same compound, the figures for the “area under concentration-response curve” value in the assay on CU-ACC1 [3] and in the assay on NCI-H295R [4] were 149 and 156, respectively.
